From patent US6887879B2, “Pharmaceutical combination of antiviral agents” (priority 1999, dated 2005)
Read-outs that look alike come from different tables or passages of the source.

Experiments:
[1] = Cytotoxicity, [3H]-thymidine uptake, HSF; assay type: cell-based; details: human, human skin fibroblasts (HSF)
Method: (§1) The cellular toxicity of the BCH compounds were assessed on various cells using [^3H]-thymidine uptake. The various cells, including Molt-4, HT1080, DU-145, HepG 2 and HSF, were plated at a concentration of 1-2×10^3 cells per well (96 well plates). However, PHA-stimulated PBMCs were cultured at a concentration of 4×10^4. After a 24 hr incubation period, 10-fold serial diluted compounds (10^−4 M to 10^−10 M) were added to the culture medium and the cells were further incubated for 72 hrs. [^3H]-thymidine was added during the final 18 hr incubation period. After incubation with the [^3H]-thymidine, the cells were washed once with PBS, treated with trypsin it the cells were adherent, and then resuspended in water (hypotonic lysing of cells) The cellular extract was applied directly to a Tomtec Harvester 96. Using this instrument the extracted DNA is adsorbed onto filters, washed and the incorporated [^3H]-thymidine is then counted.

[2] = Cytotoxicity, [3H]-thymidine uptake, HT-1080; assay type: cell-based; details: human, HT-1080 cells
Method: as §1

[3] = Cytotoxicity, [3H]-thymidine uptake, PBMC; assay type: cell-based; details: human, PHA-stimulated PBMCs
Method: as §1

[4] = Cytotoxicity, [3H]-thymidine uptake, Molt-4; assay type: cell-based; details: human, Molt-4 cells
Method: as §1

[5] = test system: HIV-1 clinical isolate 4526; experiment: Antiviral assay, HIV-1 clinical isolate 4526, CBMCs; assay type: cell-based; details: Human immunodeficiency virus 1, naive
Method: (§2) HIV-1IIIB laboratory strain and HXB2-D recombinant of HIV-1 were kindly supplied by R. C. Gallo (Institute of Human Virology, Baltimore, Md.). […] The recombinant viruses were generated by transfection of proviral DNA into MT-4 cells with Lipofectamine using the protocol recommended by the manufacturer .(Gibco BRL, Montreal, Canada). […] Stock viruses were prepared from clarified culture supernatants by centrifugation and stored at −70° C. The viruses were titrated by limited dilution with a 4-fold serial dilution.
(§3) The population of HIV-1 in infected individual is quasispecies and the sensitivity of these different viruses found in clinical isolates to antiviral chemotherapy might be quite variable. In addition, HIV-1 isolates obtained from patients receiving long-term antiretroviral therapy might behave differently from cloned virus containing genetically engineered mutations in the RT gene. For these reasons, clinical isolates of HIV-1 from antiviral naive and drug-treated patients were assayed in PHA-stimulated CBMCs for their sensitivity to DXG and DAPD accompanied with approved antiretroviral agents. The genotype of the HIV-1 clinical isolates were determined as described above.

recombinant HXB2-D 74V = experiment: microbe, parasite or virus in culture; assay type: cell-based, HIV-1; details: Human immunodeficiency virus 1, HXB2, read-out: EC50 in CBMCs
Method: as §2

[6] = test system: recombinant HXB2-D 10R/46I/63P/82T/84V; experiment: microbe, parasite or virus in culture; assay type: cell-based, HIV-1; details: Human immunodeficiency virus 1, HXB2, read-out: EC50 in CBMCs
Method: as §2

[7] = test system: recombinant HXB2-D 41L/215Y/184V; experiment: microbe, parasite or virus in culture; assay type: cell-based, HIV-1
Method: as §2

recombinant HXB2-D 184V = experiment: microbe, parasite or virus in culture; assay type: cell-based, HIV-1; details: Human immunodeficiency virus 1, HXB2, read-out: EC50 in CBMCs
Method: as §2

[8] = test system: recombinant HXB2-D 41L/70R/215Y/219Q; experiment: microbe, parasite or virus in culture; assay type: cell-based, HIV-1
Method: as §2

[9] = test system: recombinant HXB2-D 106A/181C; experiment: microbe, parasite or virus in culture; assay type: cell-based, HIV-1; details: Human immunodeficiency virus 1, HXB2, read-out: EC50 in CBMCs
Method: as §2

recombinant HXB2-D 65R = experiment: microbe, parasite or virus in culture; assay type: cell-based, HIV-1; details: Human immunodeficiency virus 1, HXB2, read-out: EC50 in CBMCs
Method: as §2

recombinant HXB2-D WT = experiment: microbe, parasite or virus in culture; assay type: cell-based, HIV-1; details: Human immunodeficiency virus 1, HXB2, read-out: EC50 in CBMCs
Method: as §2

[10] = test system: HIV-1 clinical isolate 4877; experiment: microbe, parasite or virus in culture; assay type: cell-based; details: Human immunodeficiency virus 1, read-out: EC50 in CBMCs
Method: as §2, §3

[11] = test system: HIV-1 clinical isolate 3350; experiment: microbe, parasite or virus in culture; assay type: cell-based
Method: as §2, §3

[12] = test system: HIV-1 clinical isolate 4205; experiment: microbe, parasite or virus in culture; assay type: cell-based
Method: as §2, §3

[13] = test system: HIV-1 clinical isolate 4833; experiment: microbe, parasite or virus in culture; assay type: cell-based; details: Human immunodeficiency virus 1, therapy Saquinavir (48 weeks), read-out: EC50 in CBMCs
Method: as §2, §3

[14] = test system: HIV-1 clinical isolate 3887; experiment: microbe, parasite or virus in culture; assay type: cell-based; details: Human immunodeficiency virus 1, read-out: EC50 in CBMCs
Method: as §2, §3

[15] = test system: HIV-1 clinical isolate 4924; experiment: microbe, parasite or virus in culture; assay type: cell-based; details: Human immunodeficiency virus 1, read-out: EC50 in CBMCs
Method: as §2, §3

[16] = test system: HIV-1 clinical isolate 4242; experiment: microbe, parasite or virus in culture; assay type: cell-based
Method: as §2, §3

HIV-1IIIB = experiment: Anti-HIV-1 antiviral assay, laboratory strain HIV-1IIIB, RT activity in culture supernatants
Method: Most experiments were performed with a laboratory strain HIV-1III. […] The cells were incubated with virus using the indicated multiplicity of infection (MOI) for 2-3 hrs. The MOI used for each experiment was dependent upon the cell line and virus strain used, and was generally in the range of 0.005 to 0.5. For example, in assays performed using the established cell line MT-2, HIV-1IIIB at an MOI of 0.005 was used to infect cells. The unbound virus was then removed by washing the cells, followed by plating the cells into a 96-well plate. The infected cells were cultured in the presence of a serial concentrations of the test compound for 5-7 days. The anti-HIV-1 efficacy was determined by testing for HIV-1 RT activity in the cell culture supernatants. All assays were performed in duplicate and at least two independent experiments were performed. […] The susceptibilities of the HIV-1 variants to antiretroviral agents are expressed as the mean of the EC50 determinations.

[17] = test system: CBMCs, MT-2, H9, Jurkat and U937; experiment: Cytotoxicity, WST-1 cell viability assay; assay type: cell-based, human; details: WST-1, MT-2, H9, Jurkat and U937
Method: The cellular toxicity of the compounds was also tested by WST-1 staining through assessing proliferation of MT-2, H9, Jurkat, U937, and CBMCs. The established cell lines were cultured in RPMI medium in 96-well plates at a density of 5×10^4 cells/well while CBMCs were plated at a concentration of 0.5×10^6/well. A 10-fold serial diluted (10^−4−10^−7 M) compound was added at day zero. At day 4, the cells were passaged by changing half medium containing appropriately diluted compound. The cell activities were assessed at day 7 using the WST-1 reagent (Boehringer Mannheim) following the protocol provided by the supplier.

[18] = Cytotoxicity, [3H]-thymidine uptake, HepG2; assay type: cell-based; details: human, HepG2 cells
Method: as §1

[19] = Cytotoxicity, [3H]-thymidine uptake, DU145; assay type: cell-based; details: human, DU145 cells
Method: as §1

[20] = test system: HIV-1 clinical isolate 4246; experiment: Antiviral assay, HIV-1 clinical isolate 4246, CBMCs; assay type: cell-based; details: Human immunodeficiency virus 1, read-out: EC50 in CBMCs
Method: as §2, §3

[21] = Human immunodeficiency virus 1, HXB2, read-out: EC50 in CBMCs
[22] = Human immunodeficiency virus 1, read-out: EC50 in CBMCs

**Q.** For Nc1nc2c(ncn2[C@H]2CO[C@@H](CO)O2)c(=O)[nH]1 [DXG, (−)-β-D-1,3-dioxolane guanine], which CC50 at 72 h [1] is on record?
**A.** ≥ 500000 nM

**Q.** And the CC50 at 72 h [2]?
**A.** > 500000 nM

**Q.** And the CC50 at 72 h [3]?
**A.** > 500000 nM

**Q.** What about the CC50 at 72 h [4] of the same molecule?
**A.** > 500000 nM

**Q.** What about the EC50 [5] of the same molecule?
**A.** 55 ± 27 nM

**Q.** And the EC50 (recombinant HXB2-D 74V)?
**A.** 1300 ± 800 nM

**Q.** And the EC50 [6]?
**A.** 120 ± 30 nM

**Q.** And the decreased sensitivity ([7]; 41L and 215Y combined with 184V)?
**A.** ~2 fold

**Q.** And the EC50 [7, 21]?
**A.** 410 ± 100 nM

**Q.** What about the EC50 (recombinant HXB2-D 184V) of the same molecule?
**A.** 440 ± 70 nM

**Q.** And the “sensitivity of AZT resistant virus, in words” value ([8]; 41L, 70R, 215Y and 219Q, CBMCs, also observed in MT-2 cells)?
**A.** remained completely sensitive

**Q.** And the EC50 [8, 21]?
**A.** 240 ± 20 nM

**Q.** And the EC50 [9]?
**A.** 50 ± 7 nM

**Q.** And the EC50 (recombinant HXB2-D 65R)?
**A.** 1200 ± 200 nM

**Q.** What about the EC50 (recombinant HXB2-D WT) of the same molecule?
**A.** 210 ± 50 nM

**Q.** And the EC50 [10]?
**A.** 45 nM

**Q.** And the EC50 [11, 22]?
**A.** 650 ± 330 nM

**Q.** What about the “decreased susceptibility compared to the lamivudine and AZT sensitive isolates” value ([11]; isolate 3350, 184V) of the same molecule?
**A.** ~5 fold

**Q.** What about the EC50 [12, 22] of the same molecule?
**A.** 1100 ± 1190 nM

**Q.** What about the “decreased susceptibility compared to the lamivudine and AZT sensitive isolates” value ([12]; isolate 4205, 184V) of the same molecule?
**A.** ~5 fold

**Q.** And the EC50 [13]?
**A.** 170 ± 60 nM

**Q.** What about the EC50 [14] of the same molecule?
**A.** 180 ± 7 nM

**Q.** What about the EC50 [15] of the same molecule?
**A.** 20 nM

**Q.** And the “sensitivity of isolate 4242, in words” value ([16]; 41L/70R/215Y in RT)?
**A.** remained sensitive

**Q.** And the EC50 [16, 22]?
**A.** 210 ± 7 nM

**Q.** What about the EC50 (HIV-1IIIB; Human immunodeficiency virus 1, H9, read-out: EC50, mean values ± SD) of the same molecule?
**A.** 60 ± 50 nM

**Q.** What about the EC50 (HIV-1IIIB; Human immunodeficiency virus 1, Jurkat, read-out: EC50, mean values ± SD) of the same molecule?
**A.** 340 ± 140 nM

**Q.** And the EC50 (HIV-1IIIB; Human immunodeficiency virus 1, MT2, read-out: EC50, mean values ± SD)?
**A.** 85 nM

**Q.** What about the EC50 (HIV-1IIIB; Human immunodeficiency virus 1, MT4, read-out: EC50, mean values ± SD) of the same molecule?
**A.** 51 ± 9 nM

**Q.** And the EC50 (HIV-1IIIB; Human immunodeficiency virus 1, U-937)?
**A.** 410 nM

**Q.** And the EC50 (HIV-1IIIB; Human immunodeficiency virus 1, read-out: EC50, mean values ± SD)?
**A.** 46 nM

**Q.** And the “anti-HIV-1 efficacy fold less than that of AZT” value (HIV-1IIIB; various cells)?
**A.** 5-10 fold

**Q.** What about the “no toxicity up to (highest concentration tested)” value [17] of the same molecule?
**A.** ≥ 100 µM

**Q.** And the CC50 at 72 h [18]?
**A.** > 500000 nM

**Q.** And the CC50 at 72 h [19]?
**A.** > 500000 nM

**Q.** And the EC50 [20]?
**A.** 120 ± 80 nM
